# Where two headings read alike, the source gives them in different places.
# How the values were obtained:
# [1] = system: P. falciparum strain F32-TEM (F32-Tanzania); experiment: In vitro antiplasmodial activity (SYBR Green fluorescence and [3H] hypoxanthine assays); assay type: cell-based, Plasmodium falciparum
# Protocol: In vitro antiplasmodial activities of the synthesized hybrid molecules were evaluated against the P. falciparum strain F32-TEM (corresponding to the parental strain F32-Tanzania). Each molecule was tested at least in three independent experiments (except Aubis(5-Bn), tested twice) by a SYBR Green Fluorescence assay but also at least once with the standard chemosensitivity assay recommended by the WHO and based on the incorporation of [^3H] hypoxanthine.
# For the SYBR Green Fluorescence assay, ring stage parasites were treated with the drugs for 48 h. Then, the pellets were washed twice with PBS and frozen at −20 °C. Thawed plates were incubated for 2 h at room temperature with the SYBR Green (Thermo-Fisher, Illkirch, France) lysis buffer (20 mm Tris base pH 7.5, 5 mm EDTA, 0.008% w/v saponin, 0.08% w/v Triton X-100). The plates were then read using a fluorescence plate reader (FLx800, BioTek, Illkirch, France) at an excitation wavelength of 485 nm and 535 nm for the emission wavelength. The IC50 values (concentration inhibiting 50% of the parasite’s growth) were determined using GraphPad Prism software 7 (GraphPad Software, San Diego, CA, USA).
# For [^3H] hypoxanthine assay, ring stage parasites were incubated with the drug dilutions for 24 h, then, [^3H] hypoxanthine (50 μL/0.25 μCi; Perkin-Elmer, Courtaboeuf, France) was added for another 24 h period. After that, plates were frozen at −20 °C. The next step is to thaw the plates and to collect the nucleic acids. Tritium incorporation was then determined thanks to a β-counter (Perkin-Elmer, Courtaboeuf, France).
# The antiplasmodial activities reported in Table 1 correspond thus to the mean of IC50 values from at least 4 independent experiments acquired by the two methods, SYBR Green and radioactivity.
# [2] = system: Vero cell line; experiment: Cytotoxicity on Vero cells (MTT); assay type: cell-based, monkey; details: for IC50: Vero cells, 48 h, MTT, read-out: Cytotoxicity on Vero Cells IC50 ± SEM
# Protocol: The cells were cultured in MEM medium (Dutscher, Brumath, France) supplemented with 10% fetal bovine serum (Dutscher), 0.7 mM glutamine and 100 μg/mL gentamicin. The cells were seeded at 10^4 cells per well in a 96-well plates and incubated during 24 h. Then, cells were incubated for additional 48 h with the drugs. […] Subsequently, DMSO was added to the wells containing the cells and MTT to dissolve the formed crystals. The plates were then read to determine the absorbance at wavelength of 540 nm (µQuant, BioTek, Illkirch, France). Cell proliferation was calculated from at least three independent experiments using GraphPad Prism software 7 (GraphPad Software, San Diego, CA, USA). The cytotoxic/antiplasmodial activity ratio corresponds to the selectivity index.
# [3] = Plasmodium falciparum, F32, 48 h, strain F32-Tanzania (F32-TEM), mean of at least 4 experiments, SYBR Green and radioactivity assays, read-out: Antiplasmodial Activity on P. falciparum IC50 ± SEM
# [4] = strain F32-Tanzania (F32-TEM), mean of at least 4 experiments, SYBR Green and radioactivity assays, 48 h, read-out: Antiplasmodial Activity on P. falciparum IC50 ± SEM
SMILES,"IC50 [1, 3]",IC50 [2],"IC50 [1, 4]",other results
"C[C@@H]1CCC2[C@@H](C)[C@@H](OCCCn3cc[n+](-c4ccc5ccccc5n4)c3)O[C@@H]3O[C@@]4(C)CCC1[C@@]23OO4 (stereo partly drawn) [L3-Quin, 3′-Quinolin-2-yl-1′-[10β-(20-propoxy)dihydroartemisinin]1H-imidazol-3-ium bromide]",330 ± 69 nM,–,–,–
C[C@@H]1CCC2[C@@H](C)[C@@H](OCCCCn3cc[n+](Cc4ccccc4)[c]3[Au-][c]3n(CCCCO[C@H]4O[C@@H]5O[C@@]6(C)CCC7[C@H](C)CCC([C@H]4C)[C@]75OO6)cc[n+]3Cc3ccccc3)O[C@@H]3O[C@@]4(C)CCC1[C@@]23OO4.[Cl-] (some centres unmarked) [Aubis(4-Bn)],–,700 nM,40 ± 21 nM,–
"Cc1cc(C)c(-[n+]2ccn(CCCO[C@H]3O[C@@H]4O[C@@]5(C)CCC6[C@H](C)CCC([C@H]3C)[C@]64OO5)c2)c(C)c1 (stereo partly drawn) [L3-Mes, 3′-Mesityl-1′-[10β-(20-propoxy)dihydroartemisinin]1H-imidazol-3-ium bromide]",655 ± 53 nM,–,–,–
C[C@@H]1CCC2[C@@H](C)[C@@H](OCCCn3cc[n+](-c4ccc5ccccc5n4)[c]3[Au-][c]3n(CCCO[C@H]4O[C@@H]5O[C@@]6(C)CCC7[C@H](C)CCC([C@H]4C)[C@]75OO6)cc[n+]3-c3ccc4ccccc4n3)O[C@@H]3O[C@@]4(C)CCC1[C@@]23OO4.[Cl-] (some centres unmarked) [Aubis(3-Quin)],–,1200 nM,23 ± 8 nM,–
CC(C)[n+]1ccn(CCCO[C@H]2O[C@@H]3O[C@@]4(C)CCC5[C@H](C)CCC([C@H]2C)[C@]53OO4)[c]1[Au-][c]1n(CCCO[C@H]2O[C@@H]3O[C@@]4(C)CCC5[C@H](C)CCC([C@H]2C)[C@]53OO4)cc[n+]1C(C)C.[Cl-] (some centres unmarked) [Aubis(3-iPr)],–,700 nM,13 ± 5 nM,–
C[C@@H]1CCC2[C@@H](C)[C@@H](OCCCn3cc[n+](Cc4ccccc4)[c]3[Au-][c]3n(CCCO[C@H]4O[C@@H]5O[C@@]6(C)CCC7[C@H](C)CCC([C@H]4C)[C@]75OO6)cc[n+]3Cc3ccccc3)O[C@@H]3O[C@@]4(C)CCC1[C@@]23OO4.[Cl-] (some centres unmarked) [Aubis(3-Bn)],–,300 nM,22 ± 3 nM,–
"C[C@@H]1CCC2[C@@H](C)[C@@H](OCCCCCn3cc[n+](-c4ccc5ccccc5n4)c3)O[C@@H]3O[C@@]4(C)CCC1[C@@]23OO4 (stereo partly drawn) [L5-Quin, 3′-Quinolin-2-yl-1′-[10β-(22-pentoxy)dihydroartemisinin]1H-imidazol-3-ium bromide]",226 ± 29 nM,–,–,–
"CC(C)[n+]1ccn(CCCO[C@H]2O[C@@H]3O[C@@]4(C)CCC5[C@H](C)CCC([C@H]2C)[C@]53OO4)c1 (stereo partly drawn) [L3-iPr, 3′-Isopropyl-1′-[10β-(20-propoxy)dihydroartemisinin]1H-imidazol-3-ium bromide]",335 ± 28 nM,–,–,–
"C[C@@H]1CCC2[C@@H](C)[C@@H](OCCCCCn3cc[n+](C)c3)O[C@@H]3O[C@@]4(C)CCC1[C@@]23OO4 (stereo partly drawn) [L5-Me, 3′-methyl-1′-[10β-(22-pentoxy)-dihydroartemisinin]1H-imidazol-3-ium bromide]",172 ± 22 nM,–,–,–
"C[C@@H]1CCC2[C@@H](C)[C@@H](OCCCn3cc[n+](Cc4ccccc4)c3)O[C@@H]3O[C@@]4(C)CCC1[C@@]23OO4 (stereo partly drawn) [L3-Bn, 3′-Benzyl-1′-[10β-(20-propoxy)dihydroartemisinin]1H-imidazol-3-ium bromide]",351 ± 56 nM,–,–,–
"Cc1cc(C)c(-[n+]2ccn(CCCCO[C@H]3O[C@@H]4O[C@@]5(C)CCC6[C@H](C)CCC([C@H]3C)[C@]64OO5)c2)c(C)c1 (stereo partly drawn) [L4-Mes, 3′-Mesityl-1′-[10β-(21-butoxy)dihydroartemisinin]1H-imidazol-3-ium bromide]",219 ± 18 nM,–,–,–
Cc1cc(C)c(-[n+]2ccn(CCCCO[C@H]3O[C@@H]4O[C@@]5(C)CCC6[C@H](C)CCC([C@H]3C)[C@]64OO5)[c]2[Au-][c]2n(CCCCO[C@H]3O[C@@H]4O[C@@]5(C)CCC6[C@H](C)CCC([C@H]3C)[C@]64OO5)cc[n+]2-c2c(C)cc(C)cc2C)c(C)c1.[Cl-] (some centres unmarked) [Aubis(4-Mes)],–,700 nM,38 ± 3 nM,–
C[C@@H]1CCC2[C@@H](C)[C@@H](OCCCCCn3cc[n+](-c4ccc5ccccc5n4)[c]3[Au-][c]3n(CCCCCO[C@H]4O[C@@H]5O[C@@]6(C)CCC7[C@H](C)CCC([C@H]4C)[C@]75OO6)cc[n+]3-c3ccc4ccccc4n3)O[C@@H]3O[C@@]4(C)CCC1[C@@]23OO4.[Cl-] (some centres unmarked) [Aubis(5-Quin)],–,2000 nM,38 ± 9 nM,–
"C[C@@H]1CCC2[C@@H](C)[C@@H](OCCCCn3cc[n+](C)c3)O[C@@H]3O[C@@]4(C)CCC1[C@@]23OO4 (stereo partly drawn) [L4-Me, 3′-methyl-1′-[10β-(21-butoxy)-dihydroartemisinin]1H-imidazol-3-ium bromide]",840 ± 64 nM,–,–,–
"CC(=O)OC[C@H]1O[C@@H]([S-])[C@H](OC(C)=O)[C@@H](OC(C)=O)[C@@H]1OC(C)=O.CCP(CC)CC.[Au+] [Auranofin, reference compound]",–,–,1500 nM,–
"C[C@@H]1CCC2[C@@H](C)[C@@H](OCCCCn3cc[n+](Cc4ccccc4)c3)O[C@@H]3O[C@@]4(C)CCC1[C@@]23OO4 (stereo partly drawn) [L4-Bn, 3′-Benzyl-1′-[10β-(21-butoxy)dihydroartemisinin]1H-imidazol-3-ium bromide]",326 ± 44 nM,–,–,–
"C[C@@H]1CCC2[C@@H](C)[C@@H](OCCCn3cc[n+](C)c3)O[C@@H]3O[C@@]4(C)CCC1[C@@]23OO4 (stereo partly drawn) [L3-Me, 3′-methyl-1′-[10β-(20-propoxy)-dihydroartemisinin]1H-imidazol-3-ium bromide]",935 ± 117 nM,–,–,–
"C[C@@H]1CCC2[C@@H](C)[C@@H](OCCCCn3cc[n+](-c4ccc5ccccc5n4)c3)O[C@@H]3O[C@@]4(C)CCC1[C@@]23OO4 (stereo partly drawn) [L4-Quin, 3′-Quinolin-2-yl-1′-[10β-(21-butoxy)dihydroartemisinin]1H-imidazol-3-ium bromide]",330 ± 37 nM,–,–,–
C[C@@H]1CCC2[C@@H](C)[C@@H](OCCCCn3cc[n+](-c4ccc5ccccc5n4)[c]3[Au-][c]3n(CCCCO[C@H]4O[C@@H]5O[C@@]6(C)CCC7[C@H](C)CCC([C@H]4C)[C@]75OO6)cc[n+]3-c3ccc4ccccc4n3)O[C@@H]3O[C@@]4(C)CCC1[C@@]23OO4.[Cl-] (some centres unmarked) [Aubis(4-Quin)],–,–,83 ± 31 nM,–
Cc1cc(C)c(-[n+]2ccn(CCCCCO[C@H]3O[C@@H]4O[C@@]5(C)CCC6[C@H](C)CCC([C@H]3C)[C@]64OO5)[c]2[Au-][c]2n(CCCCCO[C@H]3O[C@@H]4O[C@@]5(C)CCC6[C@H](C)CCC([C@H]3C)[C@]64OO5)cc[n+]2-c2c(C)cc(C)cc2C)c(C)c1.[Cl-] (some centres unmarked) [Aubis(5-Mes)],–,–,100 ± 12 nM,–
CO[C@H]1O[C@@H]2O[C@@]3(C)CC[C@H]4[C@H](C)CC[C@@H]([C@H]1C)[C@@]24OO3 [Artemether],–,–,–,"Selectivity Index Vero Cells/P. falciparum ([2]; cytotoxic/antiplasmodial activity ratio): 35 000; IC50 ([1]; Plasmodium falciparum, F32, 48 h, read-out: Antiplasmodial Activity on P. falciparum IC50 ± SEM, strain F32-Tanzania (F32-TEM), mean of at least 4 experiments, SYBR Green and radioactivity assays): 6.1 ± 1 nM"
Cc1cc(C)c(-[n+]2ccn(CCCO[C@H]3O[C@@H]4O[C@@]5(C)CCC6[C@H](C)CCC([C@H]3C)[C@]64OO5)[c]2[Au-][c]2n(CCCO[C@H]3O[C@@H]4O[C@@]5(C)CCC6[C@H](C)CCC([C@H]3C)[C@]64OO5)cc[n+]2-c2c(C)cc(C)cc2C)c(C)c1.[Cl-] (some centres unmarked) [Aubis(3-Mes)],–,500 nM,61 ± 37 nM,–
C[C@@H]1CCC2[C@@H](C)[C@@H](OCCCCCn3cc[n+](Cc4ccccc4)[c]3[Au-][c]3n(CCCCCO[C@H]4O[C@@H]5O[C@@]6(C)CCC7[C@H](C)CCC([C@H]4C)[C@]75OO6)cc[n+]3Cc3ccccc3)O[C@@H]3O[C@@]4(C)CCC1[C@@]23OO4.[Cl-] (some centres unmarked) [Aubis(5-Bn)],–,600 nM,72 ± 14 nM,–

# From article PMC7356589, “Hybrid Gold(I) NHC-Artemether Complexes to Target Falciparum Malaria Parasites” (Molecules, 2020)
